Our source for the AC50 values is ChEMBL document CHEMBL5291721, “A preclinical secondary pharmacology resource illuminates target-adverse drug reaction associations of marketed drugs” (Nat Commun, 2023).

A word on the AC50: it is the midpoint of the concentration-response curve, whichever way the signal moves.

Some targets named below: Cannabinoid receptor 1 (Homo sapiens, UniProt P21554); Vasopressin V2 receptor (Homo sapiens, UniProt P30518); Mu-type opioid receptor (Homo sapiens, UniProt P35372).
The target in experiment [1] is T1, Alpha-1A adrenergic receptor (Homo sapiens, UniProt P35348).
T1 sequence (P35348 whole entry): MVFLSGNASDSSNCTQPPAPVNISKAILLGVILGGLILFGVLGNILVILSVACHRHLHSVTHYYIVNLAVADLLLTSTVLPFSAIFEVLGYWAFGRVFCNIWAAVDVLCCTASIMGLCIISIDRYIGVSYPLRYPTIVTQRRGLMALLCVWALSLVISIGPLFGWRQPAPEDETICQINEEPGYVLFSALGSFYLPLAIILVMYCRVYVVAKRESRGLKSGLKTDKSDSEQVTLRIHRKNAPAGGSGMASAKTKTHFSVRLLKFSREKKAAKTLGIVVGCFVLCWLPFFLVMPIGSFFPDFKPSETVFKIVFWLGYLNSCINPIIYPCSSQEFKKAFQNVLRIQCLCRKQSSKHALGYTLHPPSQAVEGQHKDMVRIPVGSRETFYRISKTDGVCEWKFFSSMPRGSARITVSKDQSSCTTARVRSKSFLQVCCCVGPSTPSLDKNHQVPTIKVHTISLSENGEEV
Format: functional, cell-based.

The target of experiment [2] is Kappa-type opioid receptor (Homo sapiens, UniProt P41145).
Sequence of Kappa-type opioid receptor (P41145 whole entry): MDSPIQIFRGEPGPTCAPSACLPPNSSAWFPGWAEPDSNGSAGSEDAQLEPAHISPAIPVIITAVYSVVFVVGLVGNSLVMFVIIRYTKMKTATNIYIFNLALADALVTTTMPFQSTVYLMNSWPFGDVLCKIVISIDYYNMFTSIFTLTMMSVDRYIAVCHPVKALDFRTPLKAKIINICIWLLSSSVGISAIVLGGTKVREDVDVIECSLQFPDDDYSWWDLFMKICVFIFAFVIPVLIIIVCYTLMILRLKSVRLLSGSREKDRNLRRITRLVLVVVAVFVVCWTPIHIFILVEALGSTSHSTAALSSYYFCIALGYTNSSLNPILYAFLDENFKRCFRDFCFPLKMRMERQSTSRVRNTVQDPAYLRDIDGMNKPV
The target in experiment [3] is Sodium-dependent serotonin transporter (Homo sapiens, UniProt P31645).
Sequence of Sodium-dependent serotonin transporter (P31645 whole entry): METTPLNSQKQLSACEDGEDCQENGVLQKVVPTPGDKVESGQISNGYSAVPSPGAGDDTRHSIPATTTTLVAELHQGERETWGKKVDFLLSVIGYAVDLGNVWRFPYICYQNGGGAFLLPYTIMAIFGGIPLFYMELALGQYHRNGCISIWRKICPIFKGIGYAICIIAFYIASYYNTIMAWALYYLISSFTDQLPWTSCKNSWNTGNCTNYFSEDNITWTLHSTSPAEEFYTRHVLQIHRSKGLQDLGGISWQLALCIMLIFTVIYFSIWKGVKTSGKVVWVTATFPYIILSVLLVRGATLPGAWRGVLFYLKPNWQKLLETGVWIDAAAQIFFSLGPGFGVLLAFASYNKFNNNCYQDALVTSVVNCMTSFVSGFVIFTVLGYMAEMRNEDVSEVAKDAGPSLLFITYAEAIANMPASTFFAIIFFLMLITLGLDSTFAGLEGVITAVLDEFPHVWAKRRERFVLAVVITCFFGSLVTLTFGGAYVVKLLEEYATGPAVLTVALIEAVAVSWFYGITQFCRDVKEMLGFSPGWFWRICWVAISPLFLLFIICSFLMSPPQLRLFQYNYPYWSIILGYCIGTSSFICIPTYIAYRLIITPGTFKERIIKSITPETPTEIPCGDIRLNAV
The target in experiment [4] is Voltage-dependent L-type calcium channel subunit alpha-1C (Rattus norvegicus, UniProt P22002). It is filed as functional.
The next experiment concerns the target T2, Thromboxane A2 receptor (Homo sapiens, UniProt P21731).
T2 sequence (P21731 whole entry): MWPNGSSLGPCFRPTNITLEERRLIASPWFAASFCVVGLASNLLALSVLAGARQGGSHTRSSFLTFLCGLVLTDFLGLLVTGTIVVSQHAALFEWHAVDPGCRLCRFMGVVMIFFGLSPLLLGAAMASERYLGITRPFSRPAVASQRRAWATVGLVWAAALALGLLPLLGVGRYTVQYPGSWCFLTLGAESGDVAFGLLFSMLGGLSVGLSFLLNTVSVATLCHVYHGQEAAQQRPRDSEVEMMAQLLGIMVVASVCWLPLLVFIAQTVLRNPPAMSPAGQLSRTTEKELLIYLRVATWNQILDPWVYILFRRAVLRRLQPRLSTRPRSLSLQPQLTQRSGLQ
It is filed as functional, cell-based.

The target of the next experiment is T3, Progesterone receptor (Homo sapiens, UniProt P06401).
T3 sequence (P06401 whole entry): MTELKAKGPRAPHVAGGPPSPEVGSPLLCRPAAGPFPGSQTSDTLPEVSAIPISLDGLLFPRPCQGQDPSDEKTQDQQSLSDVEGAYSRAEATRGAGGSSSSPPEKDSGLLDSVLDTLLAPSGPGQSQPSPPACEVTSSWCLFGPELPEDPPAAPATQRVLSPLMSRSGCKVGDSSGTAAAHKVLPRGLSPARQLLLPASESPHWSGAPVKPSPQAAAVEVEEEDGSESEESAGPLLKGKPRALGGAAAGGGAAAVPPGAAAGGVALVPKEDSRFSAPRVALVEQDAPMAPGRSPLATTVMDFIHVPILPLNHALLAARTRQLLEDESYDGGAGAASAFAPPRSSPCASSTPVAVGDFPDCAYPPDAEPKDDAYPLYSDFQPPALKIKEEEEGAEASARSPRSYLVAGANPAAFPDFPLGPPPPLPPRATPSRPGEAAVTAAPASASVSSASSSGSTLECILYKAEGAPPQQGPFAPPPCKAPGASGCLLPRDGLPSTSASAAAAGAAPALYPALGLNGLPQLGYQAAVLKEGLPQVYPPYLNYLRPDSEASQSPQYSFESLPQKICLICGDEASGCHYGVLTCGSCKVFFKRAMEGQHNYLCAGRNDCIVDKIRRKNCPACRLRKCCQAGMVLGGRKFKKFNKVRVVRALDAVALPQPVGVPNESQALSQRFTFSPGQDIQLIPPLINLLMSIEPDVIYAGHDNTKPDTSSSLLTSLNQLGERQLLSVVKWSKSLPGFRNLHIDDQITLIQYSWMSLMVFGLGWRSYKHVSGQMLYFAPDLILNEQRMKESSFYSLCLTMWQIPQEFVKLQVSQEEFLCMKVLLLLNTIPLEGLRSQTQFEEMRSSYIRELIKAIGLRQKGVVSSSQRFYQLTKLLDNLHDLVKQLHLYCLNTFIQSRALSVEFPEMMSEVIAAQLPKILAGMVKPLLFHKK

The target of experiment [5] is 3',5'-cyclic-AMP phosphodiesterase 4A (Homo sapiens, UniProt P27815). It is filed as functional.
Sequence of 3',5'-cyclic-AMP phosphodiesterase 4A (P27815 whole entry): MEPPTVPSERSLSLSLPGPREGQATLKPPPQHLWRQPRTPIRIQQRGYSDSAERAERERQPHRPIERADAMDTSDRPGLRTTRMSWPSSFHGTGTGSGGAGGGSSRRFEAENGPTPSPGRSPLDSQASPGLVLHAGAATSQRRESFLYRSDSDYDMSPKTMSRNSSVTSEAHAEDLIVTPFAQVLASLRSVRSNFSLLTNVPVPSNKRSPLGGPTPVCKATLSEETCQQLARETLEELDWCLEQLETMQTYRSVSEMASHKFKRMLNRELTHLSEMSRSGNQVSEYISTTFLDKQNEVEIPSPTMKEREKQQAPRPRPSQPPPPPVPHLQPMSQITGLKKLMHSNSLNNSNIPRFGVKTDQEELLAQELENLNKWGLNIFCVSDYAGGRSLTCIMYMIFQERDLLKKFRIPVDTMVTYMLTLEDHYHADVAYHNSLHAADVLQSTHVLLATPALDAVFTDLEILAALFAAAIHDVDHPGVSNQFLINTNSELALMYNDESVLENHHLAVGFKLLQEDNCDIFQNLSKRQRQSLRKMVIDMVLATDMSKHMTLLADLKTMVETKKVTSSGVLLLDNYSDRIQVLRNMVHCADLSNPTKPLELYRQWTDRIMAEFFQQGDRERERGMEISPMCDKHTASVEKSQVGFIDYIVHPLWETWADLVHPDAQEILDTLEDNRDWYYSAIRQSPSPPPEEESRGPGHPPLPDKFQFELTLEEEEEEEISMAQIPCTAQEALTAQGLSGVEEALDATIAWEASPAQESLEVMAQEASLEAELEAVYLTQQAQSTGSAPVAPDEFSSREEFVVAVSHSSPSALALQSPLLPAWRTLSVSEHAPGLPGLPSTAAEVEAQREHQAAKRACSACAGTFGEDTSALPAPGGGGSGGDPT
The target in experiment [6] is Prostaglandin G/H synthase 1 (Homo sapiens, UniProt P23219). Format: functional.
Sequence of Prostaglandin G/H synthase 1 (P23219 whole entry): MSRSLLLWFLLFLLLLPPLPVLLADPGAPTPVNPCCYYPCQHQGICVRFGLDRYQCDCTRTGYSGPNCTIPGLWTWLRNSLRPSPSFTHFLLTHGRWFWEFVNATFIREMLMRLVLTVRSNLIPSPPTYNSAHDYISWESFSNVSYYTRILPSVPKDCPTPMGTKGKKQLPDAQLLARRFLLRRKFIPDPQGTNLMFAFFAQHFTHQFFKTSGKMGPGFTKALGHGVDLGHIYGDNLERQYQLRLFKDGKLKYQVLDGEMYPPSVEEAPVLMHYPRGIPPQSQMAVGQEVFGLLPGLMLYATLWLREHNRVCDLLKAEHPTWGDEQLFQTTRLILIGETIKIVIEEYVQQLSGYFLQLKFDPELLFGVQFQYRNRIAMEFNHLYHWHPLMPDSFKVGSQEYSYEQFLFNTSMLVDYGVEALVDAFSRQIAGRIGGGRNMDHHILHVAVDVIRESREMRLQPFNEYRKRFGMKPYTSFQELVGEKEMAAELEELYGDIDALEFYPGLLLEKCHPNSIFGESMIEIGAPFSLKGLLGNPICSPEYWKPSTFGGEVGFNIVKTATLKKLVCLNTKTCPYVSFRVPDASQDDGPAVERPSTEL
Experiment [7] addresses Vascular endothelial growth factor receptor 2 (Homo sapiens, UniProt P35968). It is filed as functional.
Also: assay procedure not described here.

Sequence of Vascular endothelial growth factor receptor 2 (P35968 whole entry): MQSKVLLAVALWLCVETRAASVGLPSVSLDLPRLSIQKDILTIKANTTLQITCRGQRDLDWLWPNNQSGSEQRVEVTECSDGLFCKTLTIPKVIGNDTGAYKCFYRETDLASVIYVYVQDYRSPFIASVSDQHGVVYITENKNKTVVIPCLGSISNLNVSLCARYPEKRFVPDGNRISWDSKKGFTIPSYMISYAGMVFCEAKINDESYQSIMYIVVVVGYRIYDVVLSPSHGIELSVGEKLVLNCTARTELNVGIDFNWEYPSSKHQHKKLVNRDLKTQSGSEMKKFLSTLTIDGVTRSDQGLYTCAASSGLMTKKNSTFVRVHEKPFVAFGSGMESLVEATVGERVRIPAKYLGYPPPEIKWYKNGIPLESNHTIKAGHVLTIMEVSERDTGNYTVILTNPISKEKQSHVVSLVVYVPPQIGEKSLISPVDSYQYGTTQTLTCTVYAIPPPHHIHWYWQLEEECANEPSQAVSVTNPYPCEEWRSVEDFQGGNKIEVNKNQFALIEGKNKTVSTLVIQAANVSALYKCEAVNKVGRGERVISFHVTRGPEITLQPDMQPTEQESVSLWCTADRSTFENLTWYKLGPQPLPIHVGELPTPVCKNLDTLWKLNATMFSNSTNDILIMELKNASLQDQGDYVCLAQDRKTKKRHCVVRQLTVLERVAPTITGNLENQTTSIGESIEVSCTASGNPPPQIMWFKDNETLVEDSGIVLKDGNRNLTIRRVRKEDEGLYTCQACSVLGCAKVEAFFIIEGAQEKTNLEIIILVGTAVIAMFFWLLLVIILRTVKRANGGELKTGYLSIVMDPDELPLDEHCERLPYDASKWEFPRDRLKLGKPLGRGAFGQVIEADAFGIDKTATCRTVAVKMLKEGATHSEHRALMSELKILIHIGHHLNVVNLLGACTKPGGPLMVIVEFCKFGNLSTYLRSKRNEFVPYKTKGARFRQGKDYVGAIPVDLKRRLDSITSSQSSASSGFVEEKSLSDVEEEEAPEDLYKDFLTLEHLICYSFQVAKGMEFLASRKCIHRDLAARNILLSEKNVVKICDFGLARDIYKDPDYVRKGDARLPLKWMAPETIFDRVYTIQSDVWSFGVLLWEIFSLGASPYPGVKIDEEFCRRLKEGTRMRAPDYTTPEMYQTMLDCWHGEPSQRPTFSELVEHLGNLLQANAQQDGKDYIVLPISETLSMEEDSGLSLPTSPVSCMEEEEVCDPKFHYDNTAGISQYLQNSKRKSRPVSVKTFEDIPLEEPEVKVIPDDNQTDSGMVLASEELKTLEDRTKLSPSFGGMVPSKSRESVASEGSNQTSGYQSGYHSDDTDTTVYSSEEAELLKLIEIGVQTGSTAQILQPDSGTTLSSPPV
Sequence of Mu-type opioid receptor (P35372 whole entry): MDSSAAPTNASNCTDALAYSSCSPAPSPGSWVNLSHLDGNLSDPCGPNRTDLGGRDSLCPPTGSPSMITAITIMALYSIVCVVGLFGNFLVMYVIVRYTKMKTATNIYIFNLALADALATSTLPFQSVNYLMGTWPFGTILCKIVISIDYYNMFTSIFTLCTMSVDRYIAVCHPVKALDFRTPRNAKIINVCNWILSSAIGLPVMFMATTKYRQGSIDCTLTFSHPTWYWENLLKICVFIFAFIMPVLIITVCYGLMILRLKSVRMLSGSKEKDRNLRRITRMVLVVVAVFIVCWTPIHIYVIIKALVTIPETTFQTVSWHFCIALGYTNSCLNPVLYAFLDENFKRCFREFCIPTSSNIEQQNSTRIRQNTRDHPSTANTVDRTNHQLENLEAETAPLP
Sequence of Vasopressin V2 receptor (P30518 whole entry): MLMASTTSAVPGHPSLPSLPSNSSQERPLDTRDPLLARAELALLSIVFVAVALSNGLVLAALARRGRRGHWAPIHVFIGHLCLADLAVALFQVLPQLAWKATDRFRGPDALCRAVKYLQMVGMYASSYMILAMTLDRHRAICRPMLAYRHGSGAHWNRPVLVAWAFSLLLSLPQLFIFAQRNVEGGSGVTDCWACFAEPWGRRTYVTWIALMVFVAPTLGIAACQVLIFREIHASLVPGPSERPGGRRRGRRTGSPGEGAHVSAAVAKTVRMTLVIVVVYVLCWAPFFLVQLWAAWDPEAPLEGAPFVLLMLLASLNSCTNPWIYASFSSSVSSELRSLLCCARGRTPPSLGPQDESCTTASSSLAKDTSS

For the compound `CCCCN1C[C@H](O)[C@@H](O)[C@H](O)[C@H]1CO`, the AC50 (in experiment [1]; in experiment [2]; at Cannabinoid receptor 1; in [3]; in [4]; on Vasopressin V2 receptor) was above 30 µM in each case.
For the compound `CCOC(=O)[C@H](CCc1ccccc1)N[C@@H](C)C(=O)N1[C@H](C(=O)O)C[C@@H]2CCC[C@@H]21`, the AC50 in [1] was above 30 µM; in experiment [2], above 10 µM; at Cannabinoid receptor 1 it was above 10 µM; in [4], above 10 µM; at Vasopressin V2 receptor it was above 30 µM.
As for `CC[C@H]1OC(=O)[C@H](C)[C@@H](O[C@H]2C[C@@](C)(OC)[C@@H](O)[C@H](C)O2)[C@H](C)[C@@H](O[C@@H]2O[C@H](C)C[C@H](N(C)C)[C@H]2O)[C@](C)(O)C[C@@H](C)CN(C)[C@H](C)[C@@H](O)[C@]1(C)O` [AZITHROMYCIN], the AC50 in [1] was above 30 µM; in experiment [2], above 10 µM; at Thromboxane A2 receptor, above 30 µM; at Cannabinoid receptor 1 it was above 10 µM; on Mu-type opioid receptor it was above 30 µM; at Progesterone receptor it was above 30 µM. Moreover, the AC50 in experiment [4] was above 10 µM; in [5], above 30 µM; in [6], above 30 µM; on Vasopressin V2 receptor, above 30 µM.
As to `NCC(CC(=O)O)c1ccc(Cl)cc1` (stereo unspecified) [BACLOFEN], the AC50 in experiment [1] was above 30 µM; in experiment [2] it was above 10 µM; on Thromboxane A2 receptor it was above 30 µM; at Cannabinoid receptor 1, above 10 µM; on Mu-type opioid receptor, above 30 µM; at Progesterone receptor it was above 30 µM. Also, the concentration at half-maximal activity (AC50) in experiment [4] was above 10 µM; in experiment [5], above 30 µM; in [7], above 30 µM; in [6], above 30 µM; on Vasopressin V2 receptor it was above 30 µM.
With `CC(C)C[C@H]1C(=O)N2CCC[C@H]2[C@]2(O)O[C@](NC(=O)[C@@H]3C=C4c5cccc6[nH]c(Br)c(c56)C[C@H]4N(C)C3)(C(C)C)C(=O)N12` [BROMOCRIPTINE], the AC50 in experiment [2] was 12.8 µM; on Thromboxane A2 receptor it was above 3 µM; on Cannabinoid receptor 1, above 10 µM; at Mu-type opioid receptor it was 3.45 µM; at Progesterone receptor, above 30 µM; in [4], above 10 µM. The AC50 is above 30 µM in experiment [5], above 30 µM in [7], 2.49 µM in [6] and above 30 µM at Vasopressin V2 receptor.
Take `CC1=C(C(=O)O)N2C(=O)[C@@H](NC(=O)[C@H](N)c3ccccc3)[C@H]2SC1` [CEPHALEXIN ANHYDROUS]: the AC50 in [1] is above 30 µM; in experiment [2], above 10 µM; at Cannabinoid receptor 1, above 10 µM; in [4], above 10 µM; at Vasopressin V2 receptor it was above 30 µM.
In the case of `CN1C(=O)CCS(=O)(=O)C1c1ccc(Cl)cc1` (stereo unspecified) [CHLORMEZANONE], the AC50 (in experiment [2]; at Cannabinoid receptor 1; in [3]; in experiment [4]; at Vasopressin V2 receptor) was above 10 µM each time.
Take `CN(C)CCC(c1ccc(Cl)cc1)c1ccccn1` (stereo unspecified) [CHLORPHENIRAMINE]: the AC50 in experiment [1] was above 30 µM; in experiment [2] it was above 10 µM; at Cannabinoid receptor 1, above 10 µM; in experiment [4] it was above 10 µM; on Vasopressin V2 receptor it was above 30 µM.
Consider `O=C1Nc2ccc(Cl)cc2[C@@](C#CC2CC2)(C(F)(F)F)O1` [EFAVIRENZ], for which the AC50 in [1] was above 30 µM; on Cannabinoid receptor 1, 20.7 µM; in experiment [3], above 30 µM; in experiment [4], 18.8 µM; at Vasopressin V2 receptor, above 30 µM.
For the compound `C[C@]12CCC(=O)C=C1CC[C@@H]1[C@@H]2[C@@H](O)C[C@@]2(C)[C@H]1CC[C@]2(O)C(=O)CO` [HYDROCORTISONE], the AC50 in experiment [1] was above 30 µM; in experiment [2], above 10 µM; on Cannabinoid receptor 1, above 10 µM; in experiment [4], above 10 µM; on Vasopressin V2 receptor, above 30 µM.
Regarding `CCC(C)n1ncn(-c2ccc(N3CCN(c4ccc(OCC5COC(Cn6cncn6)(c6ccc(Cl)cc6Cl)O5)cc4)CC3)cc2)c1=O` (stereo unspecified) [ITRACONAZOLE], the AC50 (in experiment [1]; in experiment [2]; at Cannabinoid receptor 1; in [4]; at Vasopressin V2 receptor) was above 30 µM throughout.
Turning to `Cc1cccc(Nc2ccccc2C(=O)O)c1C` [MEFENAMIC ACID], the AC50 in experiment [2] was above 10 µM; at Thromboxane A2 receptor, above 30 µM; on Cannabinoid receptor 1, above 10 µM; on Mu-type opioid receptor it was above 30 µM; at Progesterone receptor, above 30 µM; in [4], above 10 µM. Besides, the AC50 in [5] is above 30 µM; in experiment [7] it was above 30 µM; in experiment [6], 0.0343 µM; at Vasopressin V2 receptor, above 10 µM.
Consider `C[C@@H](O)[C@H]1C(=O)N2C(C(=O)O)=C(S[C@@H]3CN[C@H](C(=O)N(C)C)C3)[C@H](C)[C@H]12` [MEROPENEM], for which the AC50 was above 300 µM in [1]; above 10 µM in [2]; above 10 µM at Cannabinoid receptor 1; above 10 µM in [4]; above 10 µM on Vasopressin V2 receptor.
`COc1ccccc1OCC(O)CN1CCN(CC(=O)Nc2c(C)cccc2C)CC1` (stereo unspecified) [RANOLAZINE]: the AC50 in [1] is 1.7 µM; in [2], above 30 µM; on Cannabinoid receptor 1, above 30 µM; in [3], above 30 µM; in [4], above 30 µM; at Vasopressin V2 receptor it was above 30 µM.
Regarding `CS(=O)(=O)c1ccc(C2=C(c3ccccc3)C(=O)OC2)cc1` [ROFECOXIB], the AC50 is above 30 µM in [1]; above 10 µM in [2]; above 30 µM at Thromboxane A2 receptor; above 10 µM on Cannabinoid receptor 1; above 30 µM on Mu-type opioid receptor; above 30 µM on Progesterone receptor. Further, the AC50 was above 10 µM in [4], above 30 µM in experiment [5], above 30 µM in experiment [7] and above 30 µM on Vasopressin V2 receptor.
For `Cn1nnc2c(C(N)=O)ncn2c1=O` [TEMOZOLOMIDE], the AC50 in [1] is above 30 µM; in experiment [2], above 10 µM; on Cannabinoid receptor 1, above 10 µM; in experiment [3], above 30 µM; in experiment [4], above 10 µM; on Vasopressin V2 receptor it was above 30 µM.
As to `O=C(O[C@H]1C[C@H]2CC[C@@H](C1)[N+]21CCCC1)C(O)(c1ccccc1)c1ccccc1` [TROSPIUM], the AC50 (in experiment [1]; in experiment [2]; at Cannabinoid receptor 1; in [3]; in experiment [4]; at Vasopressin V2 receptor) was above 30 µM each time.
Consider `Nc1ccn([C@H]2CC[C@@H](CO)O2)c(=O)n1` [ZALCITABINE], for which the AC50 in experiment [1] is above 30 µM; in [2] it was above 10 µM; at Cannabinoid receptor 1, above 10 µM; in experiment [3], above 10 µM; in experiment [4], above 10 µM; at Vasopressin V2 receptor it was above 10 µM.
Turning to `NS(=O)(=O)Cc1noc2ccccc12` [ZONISAMIDE], the AC50 (in experiment [2]; on Cannabinoid receptor 1; in experiment [3]; in [4]; on Vasopressin V2 receptor) was above 10 µM in each case.
